Data taken from patent publication US9302999B2, “Substituted triazoles as herbicides” (E. I. DU PONT DE NEMOURS AND COMPANY, priority 2012, dated 2016).

Key:
Format in all cases: in vivo
[1] = test system: foxtail, green (green foxtail, Setaria viridis); experiment: Test C pre-/postemergence: foxtail, green
Source text: Seeds of plant species selected from blackgrass (Alopecurus myosuroides), bromegrass, downy (downy bromegrass, Bromus tectorum), foxtail, green (green foxtail, Setaria viridis), ryegrass, Italian (Italian ryegrass, Lolium multiflorum), winter wheat (Triticum aestivum), wild oat (Avena fatua), galium (catchweed bedstraw, Galium aparine), bermudagrass (Cynodon dactylon), surinam grass (Brachiaria decumbens), cocklebur (common cocklebur, Xanthium strumarium), corn (Zea mays), large crabgrass (Digitaria sanguinalis), woolly cupgrass (Eriochloa villosa), foxtail, giant (giant foxtail, Setaria faberii), goosegrass (Eleusine indica), johnsongrass (Sorghum halepense), kochia (Kochia scoparia), lambsquarters (Chenopodium album), morningglory (Ipomoea coccinea), nightshade (eastern black nightshade, Solanum ptycanthum), nutsedge, yellow (yellow nutsedge, Cyperus esculentus), pigweed (Amaranthus retroflexus), ragweed (common ragweed, Ambrosia elation), soybean (Glycine max), common (oilseed) sunflower (Helianthus annuus), Russian thistle (Salsola kali) and velvetleaf (Abutilon theophrasti) were planted into a blend of loam soil and sand and treated preemergence with test chemicals formulated in a non-phytotoxic solvent mixture which included a surfactant.
At the same time, plants selected from these crop and weed species and also barley (winter barley, Hordeum vulgare), canarygrass (Phalaris minor), chickweed (common chickweed, Stellaria media) windgrass (Apera spica-venti) and deadnettle (henbit deadnettle, Lamium amplexicaule) were planted in pots containing Redi-Earth® planting medium (Scotts Company, 14111 Scottslawn Road, Marysville, Ohio 43041) comprising spaghnum peat moss, vermiculite, wetting agent and starter nutrients and treated with postemergence applications of test chemicals formulated in the same manner. Plants ranged in height from 2 to 18 cm (1- to 4-leaf stage) for postemergence treatments.
(§1) Treated plants and controls were maintained in a greenhouse for 13 to 15 days, after which time all species were compared to controls and visually evaluated. Plant response ratings, summarized in Table C, are based on a scale of 0 to 100 where 0 is no effect and 100 is complete control. A dash (-) response means no test result.

[2] = test system: blackgrass (Alopecurus myosuroides); experiment: Test D pre-/postemergence: blackgrass
Source text: (§2) Seeds of plant species selected from bluegrass (annual bluegrass, Poa annua), blackgrass (Alopecurus myosuroides), canarygrass (Phalaris minor), chickweed (common chickweed, Stellaria media), galium (catchweed bedstraw, Galium aparine), bromegrass, downy (downy bromegrass, Bromus tectorum), field poppy (Papaver rhoeas), field violet (Viola arvensis), foxtail, green (green foxtail, Setaria viridis), deadnettle (henbit deadnettle, Lamium amplexicaule), ryegrass, Italian (Italian ryegrass, Lolium multiflorum), kochia (Kochia scoparia), lambsquarters (Chenopodium album), oilseed rape (Brassica napus), pigweed (Amaranthus retroflexus), Russian thistle (Salsola iberica), chamomile (scentless chamomile, Matricaria inodora), speedwell (bird's-eye speedwell, Veronica persica), barley, spring (spring barley, Hordeum vulgare), wheat, spring (spring wheat, Triticum aestivum), buckwheat, wild (wild buckwheat, Polygonum convolvulus), mustard, wild (wild mustard, Sinapis arvensis), oat, wild (wild oat, Avena fatua), radish, wild (wild radish, Raphanus raphanistrum), windgrass (Apera spica-venti), barley, winter (winter barley, Hordeum vulgare), and wheat, winter (winter wheat, Triticum aestivum) were planted into a silt loam soil and treated preemergence with test chemicals formulated in a non-phytotoxic solvent mixture which included a surfactant. At the same time, these same crop and weed species were planted in pots containing the planting medium comprising spaghnum peat moss, vermiculite, wetting agent and starter nutrients and treated with postemergence applications of the test chemicals formulated in the same manner. Plants ranged in height from 2 to 18 cm (1- to 4-leaf stage).
as §1, with “controlled growth environment” for “greenhouse”, “14” for “13”, “21 days” for “15 days,”, “D,” for “C,”

[3] = test system: bromegrass, downy (downy bromegrass, Bromus tectorum); experiment: Test D pre-/postemergence: bromegrass, downy
Source text: as §2
as §1, with “controlled growth environment” for “greenhouse”, “14” for “13”, “21 days” for “15 days,”, “D,” for “C,”

[4] = test system: field violet (Viola arvensis); experiment: Test D pre-/postemergence: field violet
Source text: as §2
as §1, with “controlled growth environment” for “greenhouse”, “14” for “13”, “21 days” for “15 days,”, “D,” for “C,”

[5] = test system: ryegrass, Italian (Italian ryegrass, Lolium multiflorum); experiment: Test D pre-/postemergence: ryegrass, Italian
Source text: as §2
as §1, with “controlled growth environment” for “greenhouse”, “14” for “13”, “21 days” for “15 days,”, “D,” for “C,”

[6] = test system: windgrass (Apera spica-venti); experiment: Test D pre-/postemergence: windgrass
Source text: as §2
as §1, with “controlled growth environment” for “greenhouse”, “14” for “13”, “21 days” for “15 days,”, “D,” for “C,”

[7] = test system: barley, winter (winter barley, Hordeum vulgare); experiment: Test D pre-/postemergence: barley, winter
Source text: as §2
as §1, with “controlled growth environment” for “greenhouse”, “14” for “13”, “21 days” for “15 days,”, “D,” for “C,”

[8] = Postemergence, 31 g ai/ha, scale 0 to 100 (0 no effect, 100 complete control)
[9] = Postemergence, 62 g ai/ha, scale 0 to 100 (0 no effect, 100 complete control)
[10] = Postemergence, 125 g ai/ha, scale 0 to 100, 0 no effect, 100 complete control
[11] = Preemergence, 31 g ai/ha, scale of 0 to 100, 0 is no effect, 100 is complete control
[12] = Preemergence, 62 g ai/ha, scale of 0 to 100, 0 is no effect, 100 is complete control
[13] = Preemergence, 125 g ai/ha, scale 0 to 100, 0 no effect, 100 complete control
[14] = Preemergence, 250 g ai/ha, scale 0 to 100, 0 no effect, 100 complete control
[15] = Postemergence, 250 g ai/ha, scale 0 to 100 (0 no effect, 100 complete control)
[16] = Postemergence, 16 g ai/ha, scale 0 to 100
[17] = Preemergence, 16 g ai/ha, scale 0 to 100 (0 no effect, 100 complete control)
[18] = Preemergence, 31 g ai/ha, scale 0 to 100 (0 no effect, 100 complete control)
[19] = Preemergence, 62 g ai/ha, scale 0 to 100
[20] = Preemergence, 125 g ai/ha, scale 0 to 100
[21] = Preemergence, 250 g ai/ha, scale 0 to 100

Cc1nn(-c2ccc(F)cc2)nc1Cc1ccnc(C(F)(F)F)c1 [Compound 16, 4-[[2-(4-fluorophenyl)-5-methyl-2H-1,2,3-triazol-4-yl]methyl]-2-(trifluoromethyl)pyridine]
10: Plant response rating: Blackgrass [2, 8] | Plant response rating: Bromegrass, Downy [3, 8] | Plant response rating, Ryegrass, Italian [5, 16] | Plant response rating, Ryegrass, Italian [5, 19] | Plant response rating: Windgrass [6, 8] | Plant response rating: Barley, Winter [7, 8] | Plant response rating: Barley, Winter [7, 9] | Plant response rating, Barley, Winter [7, 20]
30: Plant response rating, Foxtail, Green [1, 8] | Plant response rating: Field Violet [4, 9] | Plant response rating, Field Violet [4, 18] | Plant response rating: Ryegrass, Italian [5, 10]
5: Plant response rating, Blackgrass [2, 16] | Plant response rating, Barley, Winter [7, 16] | Plant response rating, Barley, Winter [7, 19]
25: Plant response rating: Blackgrass [2, 10] | Plant response rating, Bromegrass, Downy [3, 19] | Plant response rating, Bromegrass, Downy [3, 20] | Plant response rating: Ryegrass, Italian [5, 9] | Plant response rating: Windgrass [6, 10] | Plant response rating: Barley, Winter [7, 10] | Plant response rating, Barley, Winter [7, 21]
35: Plant response rating: Ryegrass, Italian [5, 15] | Plant response rating: Windgrass [6, 15]
90: Plant response rating, Field Violet [4, 20] | Plant response rating, Windgrass [6, 19]
80: Plant response rating: Field Violet [4, 15] | Plant response rating, Field Violet [4, 19]
50: Plant response rating: Bromegrass, Downy [3, 15]
20: Plant response rating: Blackgrass [2, 9] | Plant response rating: Bromegrass, Downy [3, 9] | Plant response rating, Bromegrass, Downy [3, 18] | Plant response rating: Field Violet [4, 8] | Plant response rating: Ryegrass, Italian [5, 8] | Plant response rating: Windgrass [6, 9] | Plant response rating, Windgrass [6, 17] | Plant response rating, Windgrass [6, 18]
40: Plant response rating: Blackgrass [2, 15] | Plant response rating, Blackgrass [2, 19] | Plant response rating: Bromegrass, Downy [3, 10] | Plant response rating, Bromegrass, Downy [3, 21] | Plant response rating: Barley, Winter [7, 15]
100: Plant response rating, Foxtail, Green [1, 11] | Plant response rating, Foxtail, Green [1, 12] | Plant response rating, Foxtail, Green [1, 13] | Plant response rating, Foxtail, Green [1, 14] | Plant response rating, Blackgrass [2, 21] | Plant response rating, Field Violet [4, 21] | Plant response rating, Windgrass [6, 20] | Plant response rating, Windgrass [6, 21]
0: Plant response rating, Blackgrass [2, 17] | Plant response rating, Blackgrass [2, 18] | Plant response rating, Bromegrass, Downy [3, 16] | Plant response rating, Bromegrass, Downy [3, 17] | Plant response rating, Field Violet [4, 16] | Plant response rating, Field Violet [4, 17] | Plant response rating, Ryegrass, Italian [5, 17] | Plant response rating, Ryegrass, Italian [5, 18] | Plant response rating, Windgrass [6, 16] | Plant response rating, Barley, Winter [7, 17] | Plant response rating, Barley, Winter [7, 18]
70: Plant response rating, Blackgrass [2, 20] | Plant response rating: Field Violet [4, 10]
60: Plant response rating, Ryegrass, Italian [5, 20] | Plant response rating, Ryegrass, Italian [5, 21]
98: Plant response rating, Foxtail, Green [1, 9] | Plant response rating, Foxtail, Green [1, 10]

Cc1nn(-c2ccc(F)cc2)nc1Oc1ccnc(C(F)(F)F)c1 [Compound 129, 4-[[2-(4-fluorophenyl)-5-methyl-2H-1,2,3-triazol-4-yl]oxy]-2-(trifluoromethyl)pyridine]
5: Plant response rating, Blackgrass [2, 16] | Plant response rating: Ryegrass, Italian [5, 8] | Plant response rating: Ryegrass, Italian [5, 9] | Plant response rating, Ryegrass, Italian [5, 16] | Plant response rating, Ryegrass, Italian [5, 18] | Plant response rating: Barley, Winter [7, 8] | Plant response rating, Barley, Winter [7, 16]
70: Plant response rating: Blackgrass [2, 15] | Plant response rating, Ryegrass, Italian [5, 20] | Plant response rating: Windgrass [6, 10]
75: Plant response rating, Windgrass [6, 20]
15: Plant response rating: Ryegrass, Italian [5, 15] | Plant response rating, Windgrass [6, 16] | Plant response rating: Barley, Winter [7, 10] | Plant response rating, Barley, Winter [7, 21]
10: Plant response rating: Blackgrass [2, 8] | Plant response rating: Blackgrass [2, 9] | Plant response rating: Bromegrass, Downy [3, 8] | Plant response rating, Bromegrass, Downy [3, 16] | Plant response rating, Bromegrass, Downy [3, 18] | Plant response rating, Bromegrass, Downy [3, 19] | Plant response rating: Ryegrass, Italian [5, 10] | Plant response rating, Ryegrass, Italian [5, 19] | Plant response rating, Windgrass [6, 19] | Plant response rating: Barley, Winter [7, 9] | Plant response rating, Barley, Winter [7, 20]
95: Plant response rating, Foxtail, Green [1, 9] | Plant response rating, Foxtail, Green [1, 10] | Plant response rating, Foxtail, Green ([1]; Postemergence, 250 g ai/ha, scale 0 to 100) | Plant response rating: Windgrass [6, 15]
50: Plant response rating: Blackgrass [2, 10]
0: Plant response rating, Blackgrass [2, 17] | Plant response rating, Blackgrass [2, 18] | Plant response rating, Bromegrass, Downy [3, 17] | Plant response rating, Ryegrass, Italian [5, 17] | Plant response rating, Windgrass [6, 17] | Plant response rating, Windgrass [6, 18] | Plant response rating, Barley, Winter [7, 17] | Plant response rating, Barley, Winter [7, 18] | Plant response rating, Barley, Winter [7, 19]
90: Plant response rating, Foxtail, Green [1, 11] | Plant response rating, Foxtail, Green [1, 12] | Plant response rating, Foxtail, Green [1, 13] | Plant response rating, Foxtail, Green [1, 14] | Plant response rating, Ryegrass, Italian [5, 21]
30: Plant response rating, Blackgrass [2, 19] | Plant response rating: Bromegrass, Downy [3, 10] | Plant response rating: Bromegrass, Downy [3, 15] | Plant response rating, Bromegrass, Downy [3, 21] | Plant response rating: Windgrass [6, 9] | Plant response rating: Barley, Winter [7, 15]
85: Plant response rating, Foxtail, Green [1, 8]
100: Plant response rating, Blackgrass [2, 20] | Plant response rating, Blackgrass [2, 21] | Plant response rating: Field Violet [4, 8] | Plant response rating: Field Violet [4, 9] | Plant response rating: Field Violet [4, 10] | Plant response rating, Field Violet [4, 17] | Plant response rating, Field Violet [4, 18] | Plant response rating, Field Violet [4, 19] | Plant response rating, Field Violet [4, 20] | Plant response rating, Field Violet [4, 21] | Plant response rating, Windgrass [6, 21]
40: Plant response rating, Field Violet [4, 16]
20: Plant response rating: Bromegrass, Downy [3, 9] | Plant response rating, Bromegrass, Downy [3, 20] | Plant response rating: Windgrass [6, 8]
80: Plant response rating: Field Violet [4, 15]
